These results are taken from article PMC9110316 (Computational and Structural Biotechnology Journal, 2022).

Read-outs that look alike come from different tables or passages of the source. Where a SMILES comes first, the peptide text is derived from it. [ ]: non-standard residue; d: D form. The star is where a group is joined. Nle = CCCC[CH](N)C(=O)O; Cbz = O=C(OCc1ccccc1)* A value given as a limit tells only on which side of the number the result lay.

The nature of data set [1]: MTT cell viability assay in Huh7 cells. The class given is cell-based. The conditions noted are these: human. A general note: Tetrazolium assays rely on reduction of a dye to a coloured formazan, in cell work by metabolically active cells.
Data set [2] concerns SARS-CoV-2 pseudovirus. Description: microbe, parasite or virus in culture. To be noted: Severe acute respiratory syndrome-related coronavirus, A549, read-out: EC50, inhibition of SARS-CoV-2 pseudovirus infection.
Data set [3] has as its target CTSL protein prepared from human liver tissue (Homo sapiens, UniProt P07711). In words: biochemical. To be noted: for inhibition at 100 µM: read-out: inhibition against CTSL (inhibition efficiency).
The test system of data set [4] is SARS-CoV-2 pseudovirus. Description: microbe, parasite or virus in culture. To be noted: Severe acute respiratory syndrome-related coronavirus, Huh-7, read-out: EC50, inhibition of SARS-CoV-2 pseudovirus infection.
Data set [5] is described as follows: MTT cell viability assay in A549 cells. It is filed as cell-based. To be noted: human.
Data set [6] relates to SARS-CoV-2 pseudovirus.

CTSL protein prepared from human liver tissue, sequence (P07711 114-288 limits assumed): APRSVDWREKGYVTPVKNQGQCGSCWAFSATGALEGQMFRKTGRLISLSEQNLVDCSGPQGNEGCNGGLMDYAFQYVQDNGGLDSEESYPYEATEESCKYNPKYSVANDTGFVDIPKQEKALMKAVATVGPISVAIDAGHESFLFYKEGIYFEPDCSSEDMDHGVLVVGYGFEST
CTSL protein prepared from human liver tissue, sequence (P07711 292-333 limits assumed): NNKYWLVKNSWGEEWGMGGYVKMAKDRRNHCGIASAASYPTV

Consider `CCCCC(C=O)NC(=O)C(CC(C)C)NC(=O)C(CC(C)C)NC(C)=O` (stereo not drawn) [Mg-101] (Ac-Leu-Leu-[Nle]-aldehyde; configuration not given here), for which the CC50 at 24 h in data set [1] was determined as 64.3 µM; in data set [5], 355 µM. Also, the results for the EC50 with SARS-CoV-2 pseudovirus [2] and with SARS-CoV-2 pseudovirus [4] were 1.15 µM and 3.12 µM, respectively. The compound also gave an IC50 in data set [3] below 0.008 µM. Moreover, the inhibition at 100 µM in data set [3] was above 90%.

Regarding `CC(C)C[C@@H](C=O)NC(=O)[C@H](CC(C)C)NC(=O)[C@H](CC(C)C)NC(=O)OCc1ccccc1` [Mg-132] (Cbz-Leu-Leu-Leu-aldehyde), the CC50 at 24 h in data set [1] is 100 µM; in data set [5], above 200 µM. The EC50 is 0.159 µM in the data set with SARS-CoV-2 pseudovirus [2] and 0.212 µM in the data set on SARS-CoV-2 pseudovirus [4]. Moreover, the inhibition at 100 µM in data set [3] was above 90%.

As for `CC(NC(=O)C(Cc1ccccc1)NC(=O)OCc1ccccc1)C(=O)CF` (centres unmarked) [Z-FA-FMK], the CC50 at 24 h in data set [1] was 328 µM; in data set [5], above 400 µM. In addition, the figures for the EC50 in the data set on SARS-CoV-2 pseudovirus [2] and in the data set on SARS-CoV-2 pseudovirus [4] were 1.13 µM and 0.701 µM, respectively. In addition, inhibition in data set [3] was half-maximal at 0.0549 µM (IC50). The inhibition at 100 µM in data set [3] is above 90%.

As to `CC1(C)CCC2=C(O1)c1ccccc1C(=O)C2=O` [beta-lapachone], it took 47.4 µM to reach half-maximal cytotoxicity in data set [1] (CC50 at 24 h). Also, in data set [3], the IC50 was above 100 µM. In the data set on SARS-CoV-2 pseudovirus [6], the “SI (selectivity index, ratio of CC50 and EC50)” value worked out at 9.31. In addition, the EC50 with SARS-CoV-2 pseudovirus [4] was 5.09 µM.

Take `CCCC[C@@H](C=O)NC(=O)[C@H](CC(C)C)NC(=O)OCc1ccccc1` [calpeptin]: the CC50 at 24 h in data set [1] was 116 µM; in data set [5], 595 µM. Further, the results for the EC50 with SARS-CoV-2 pseudovirus [2] and in the data set on SARS-CoV-2 pseudovirus [4] were 34.8 µM and 29.8 µM, respectively. The inhibition at 100 µM in data set [3] was above 90%.

Regarding `CCCCCCCCCC(=O)N[C@@H](Cc1c[nH]c2ccccc12)C(=O)N[C@H](CC(N)=O)C(=O)N[C@@H](CC(=O)O)C(=O)N[C@@H]1C(=O)NCC(=O)N[C@@H](CCCN)C(=O)N[C@@H](CC(=O)O)C(=O)N[C@H](C)C(=O)N[C@@H](CC(=O)O)C(=O)NCC(=O)N[C@H](CO)C(=O)N[C@@H]([C@H](C)CC(=O)O)C(=O)N[C@@H](CC(=O)c2ccccc2N)C(=O)O[C@@H]1C` [daptomycin], the CC50 at 24 h in data set [1] is 3570 µM; in data set [5], above 5000 µM. In data set [3], this compound returned an IC50 of 7.87 µM.

For the compound `CC(=O)N[C@@H](CC(C)C)C(=O)N[C@@H](CC(C)C)C(=O)N[C@H](C=O)CCCNC(=N)N` [leupeptin hemisulfate], the CC50 at 24 h in data set [1] and in data set [5] was above 5000 µM in each case. The results for the EC50 with SARS-CoV-2 pseudovirus [2] and in the data set on SARS-CoV-2 pseudovirus [4] were 4.26 µM and 39.3 µM, respectively. In data set [3], the IC50 was below 0.008 µM. The inhibition at 100 µM in data set [3] was above 90%.

In general, CC50 refers to the concentration giving 50% cytotoxicity. Low readings indicate greater toxicity to the cells, high ones lower toxicity to the cells. What is called EC50 is the concentration at which the effect is half-maximal. In general, IC50 refers to the concentration that inhibits the measured activity by half. As a reminder, the inhibition is the relative decrease from the control value, in per cent.
